How the values were obtained:
Assay type in all cases: in vivo
[1] = test system: hypertensive rat; test: Blood pressure effect on hypertensive rat p.o.; conditions: given as "from" dose; for minimal effective dose: po, read-out: Blood pressure effect on hypertensive rat (dose from which the effect is seen)
Description: (§1) The pharmacological properties of these compounds are conveniently observed in well-known animal models which parallel the desired clinical response. Similarly toxicity is low, as measured for example in the conventional LD50 determination.

[2] = Toxicity (Mouse), conventional LD50 determination p.o.; conditions: in vivo, po
Description: as §1

[3] = test system: coronary vessels; test: Dosage at which a coronary effect is observed, i.v.; conditions: for minimal effective dose: iv
[4] = test system: Mouse; test: Toxicity (Mouse), conventional LD50 determination p.o.
Description: as §1

Structure (SMILES)	minimal effective dose [1] [mg/kg]	LD50 [2] [mg/kg]	minimal effective dose [3] [mg/kg]	Blood pressure effect on hypertensive rat (dose from which the effect is seen) [1] [mg/kg]	Toxicity (Mouse) LD50 [4] [mg/kg]	Dose at which a coronary effect is observed [3] [mg/kg]
C#CCOC(=O)C1=C(C)NC(C)=C(C(=O)OCC)C1c1ccccc1C (stereo not shown) [Example 2, 2,6-dimethyl-4-(2'-methylphenyl)-1,4-dihydropyridine-3,5-dicarboxylic acid 3-ethyl ester-5-propargyl ester]	≥ 10	800	0.01	–	–	–
C=CCOC(=O)C1=C(C)NC(C)=C(C(=O)OCC)C1c1ccccc1C (stereo not shown) [Example 1, 2,6-dimethyl-4-(2'-methylphenyl)-1,4-dihydropyridine-3,5-dicarboxylic acid 3-ethyl ester-5-allyl ester]	≥ 10	> 3000	0.05	–	–	–
C=CCOC(=O)C1=C(C)NC(C)=C(C(=O)OCC)C1c1ccccc1C(F)(F)F (stereo not shown) [Example 5, 2,6-dimethyl-4-(2'-trifluoromethylphenyl)-1,4-dihydropyridine-3,5-dicarboxylic acid 3-ethyl ester-5-allyl ester]	≥ 3.1	630	0.001	–	–	–
C#CCOC(=O)C1=C(C)NC(C)=C(C(=O)OCC)C1c1ccc(C(=O)OCC)cc1 (stereo not shown) [Example 19, 2,6-dimethyl-4-(4'-carboxyethylphenyl)-1,4-dihydropyridine-3,5-dicarboxylic acid 3-propargyl ester 5-ethyl ester]	–	3000	–	–	–	–
C=CCOC(=O)C1=C(C)NC(C)=C(C(=O)OCC)C1c1ccccc1Cl (stereo not shown) [Example 8, 2,6-dimethyl-4-(2'-chlorophenyl)-1,4-dihydropyridine-3,5-dicarboxylic acid 3-ethyl ester-5-allyl ester]	≥ 1	630	0.01	–	–	–
CCCOCCOC(=O)C1=C(C)NC(C)=C(C(=O)OCC)C1c1ccccc1OC (stereo not drawn) [Example 7, 2,6-dimethyl-4-(2'-methoxyphenyl)-1,4-dihydropyridine-3,5-dicarboxylic acid 3-ethyl ester-5-β-propoxyethyl ester]	≥ 31.5	> 3000	0.05	–	–	–
C#CCOC(=O)C1=C(C)NC(C)=C(C(=O)OCC)C1c1ccccc1C(F)(F)F (stereo not shown) [Example 13, 2,6-dimethyl-4-(2'-trifluoromethylphenyl)-1,4-dihydropyridine-3,5-dicarboxylic acid 3-propargyl ester 5-ethyl ester]	–	–	–	≥ 1.0	2000	0.05
C#CCOC(=O)C1=C(C)NC(C)=C(C(=O)OC)C1c1ccccc1C(F)(F)F (stereo not shown) [Example 6, 2,6-dimethyl-4-(2'-trifluoromethylphenyl)-1,4-dihydropyridine-3,5-dicarboxylic acid 3-methyl ester-5-propargyl ester]	≥ 0.3	200	0.005	–	–	–
C#CCOC(=O)C1=C(C)NC(C)=C(C(=O)OC)C1c1ccccc1C(F)(F)F (stereo not shown) [Example 12, 2,6-dimethyl-4-(2'-trifluoromethylphenyl)-1,4-dihydropyridine 3,5-dicarboxylic acid 3-propargyl ester 5-methyl ester]	–	–	–	≥ 0.3	100	0.003
C#CCOC(=O)C1=C(C)NC(C)=C(C(=O)OCC)C1c1ccccc1OC (stereo not shown) [Example 18, 2,6-dimethyl-4-(2'-methoxyphenyl)-1,4-dihydropyridine-3,5-dicarboxylic acid 3-propargyl ester 5-ethyl ester]	≥ 10	3000	0.05	–	–	–
C=CCOC(=O)C1=C(C)NC(C)=C(C(=O)OC)C1c1cc(Br)c(OC)c(OC)c1 (stereo not shown) [Example 10, 2,6-dimethyl-4-(3', 4'-dimethoxy-5-bromophenyl)-1,4-dihydropyridine-3,5-dicarboxylic acid 3-methyl ester-5-allyl ester]	–	> 3000	5	–	–	–
C=CCOC(=O)C1=C(C)NC(C)=C(C(=O)OC(C)C)C1c1cccc(C(F)(F)F)c1 (stereo not shown) [Example 15, 2,6-dimethyl-4-(3'-trifluoromethylphenyl)-1,4-dihydropyridine-3,5-dicarboxylic acid 3-isopropyl ester 5-allyl ester]	≥ 3.1	> 3000	0.05	–	–	–
CCOC(=O)C1=C(C)NC(C)=C(C(=O)OCCOC)C1c1ccccc1Cl (stereo not drawn) [Example 14, 2,6-dimethyl-4-(2'-chlorophenyl)-1,4-dihydropyridine 3,5-dicarboxylic acid 3-β-methoxyethyl ester 5-ethyl ester]	≥ 3.1	1000	0.01	–	–	–
C#CCOC(=O)C1=C(C)NC(C)=C(C(=O)OC)C1c1ccccc1F (stereo not shown) [Example 16, 2,6-dimethyl-4-(2'-fluorophenyl)-1,4-dihydropyridine-3,5-dicarboxylic acid 3-propargyl ester 5-methyl ester]	≥ 10	200	0.05	–	–	–
C#CCOC(=O)C1=C(C)NC(C)=C(C(=O)OC)C1c1ccccc1OC (stereo not shown) [Example 11, 2,6-dimethyl-4-(2'-methoxyphenyl)-1,4-dihydropyridine-3,5-dicarboxylic acid 3-propargyl ester 5-methyl ester]	≥ 10	> 3000	0.05	–	–	–
C#CCOC(=O)C1=C(C)NC(C)=C(C(=O)OCC)C1c1ccccc1C(F)(F)F (stereo not shown) [Example 4, 2,6-dimethyl-4-(2'-trifluoromethylphenyl)-1,4-dihydropyridine-3,5-dicarboxylic acid 3-ethyl ester-5-propargyl ester]	≥ 1	–	–	–	200	0.005
C=CCOC(=O)C1=C(C)NC(C)=C(C(=O)OCC)C1c1ccc(OC)c(OC)c1OC (stereo not shown) [Example 9, 2,6-dimethyl-4-(2', 3', 4'-trimethoxyphenyl)-1,4-dihydropyridine-3,5-dicarboxylic acid 3-ethyl ester-5-allyl ester]	–	3000	–	–	–	–
C=CCOC(=O)C1=C(C)NC(C)=C(C(=O)OC)C1c1ccccc1F (stereo not shown) [Example 3, 2,6-dimethyl-4-(2'-fluorophenyl)-1,4-dihydropyridine-3,5-dicarboxylic acid 3-methyl ester-5-allyl ester]	≥ 3.1	800	0.01	–	–	–
C=CCOC(=O)C1=C(C)NC(C)=C(C(=O)OCC)C1c1cccc(Cl)c1 (stereo not shown) [Example 17, 2,6-dimethyl-4-(3'-chlorophenyl)-1,4-dihydropyridine-3,5-dicarboxylic acid 3-allyl ester 5-ethyl ester]	≥ 10	> 3000	0.01	–	–	–
